Experimental data: patent US10704076B2, “Multi-tiered high through-put screen for compounds effective against bacterial biofilm and compounds effective for inhibiting and eradicating bacterial biofilm” (University of Cincinnati, priority 2013, dated 2020)
“Also recorded” adds a separate entry of the source.

Legend:
P. aeruginosa = test: HTS total bacterial growth assay (optical density OD560); type: cell-based, Pseudomonas aeruginosa; conditions: for AC50: Pseudomonas aeruginosa, 10 point dose-response 0.1-50 μM, read-out: Total Bacteria Growth AC50
From the text: (§1) Each HTS tier consisted of: (i) primary screening, (ii) confirmation screening and (iii) dose-response curve screening. Each tier of HTS included three distinct biological process assays. The first assay was an optical density measurement of bacteria growth in the presence of each compound reported as a total bacteria growth. In the second assay, resazurin solution was used as an indicator of metabolic activity to measure the live bacteria in the biofilms, reported as live biofilm. The final assay was crystal violet staining, which indicated the amount of biofilm formation and the effect of each compound on this process, reported as total biofilm formation.
(§2) Briefly, stationary phase bacteria grown in L-broth were diluted 1:200 into fresh L-broth and 50 μM of each test compound. After 20-24 hours, the optical density (OD560) of each suspension was measured using Zeiss Plate::Vision with a 560 BP filter (560 nm, 2.5% light intensity, 1 mm focus to bottom of plate, and exposure time of 100 ms). To measure bacterial viability in the biofilm, 50 μl of a 5 mg/ml resazurin solution in L-broth was added to each well after washing 3 times with 50 μl of PBS. The plates were then incubated at 37° C. for 30 or 180 min for A. baumannii and P. aeruginosa biofilms, respectively. Fluorescence was measured using Zeiss Plate::Vision at excitation and emission wavelengths of 535 and 580 nm, 100 ms exposure time, 2.5% intensity and a 2 mm focus to the bottom of the biofilms. To assess biofilm formation, plates were washed 3 times with PBS and then 50 μl of 0.01% of crystal violet was added to each well to assess bacterial biofilm formation as described in a similar borosilicate tube assay by O'Toole and Kolter. After incubation at room temperature for 30 min and removal of the crystal violet solution by washing with PBS, 95% ethanol was added to solubilize the crystal violet followed by incubation for 20 min at room temperature. Finally, the optical density of each plate was determined using measured by Zeiss Plate::Vision using the same settings used to measure total bacterial growth. These 3 steps were used in each of the three tiers for the HTS process: (i) single point primary screening at 10 μM, (ii) triplicate confirmation of hits from (i) at 10 μM and (iii) determination of AC50 values in 10 point dose-response at a concentration range of 0.1-50 μM) in hits from (ii). The AC50 represents the concentration of compound that inhibits 50% of bacterial growth, bacterial viability, or biofilm formation. Genedata Screener® Assay Analyzer Software (Ver. 9.0.0 Standard) was used to analyze data from all assay tiers. Compounds with an AC50 of less than 20 μM in one of the biological assays from the dose response screen were subject to additional investigation.

A. baumannii biofilm [1] = test: HTS live biofilm assay (resazurin metabolic activity); type: cell-based, Acinetobacter baumannii; conditions: for AC50: Acinetobacter baumannii, 10 point dose-response 0.1-50 μM
From the text: as §1, §2

P. aeruginosa biofilm [2] = test: as above; type: cell-based; conditions: Pseudomonas aeruginosa, 10 point dose-response 0.1-50 μM
From the text: as §1, §2

S. epidermidis biofilm [3] = test: as above; type: cell-based; conditions: Staphylococcus epidermidis, dose-response
A. baumannii biofilm [4] = test: CLSM, co-culture of bacteria with compound (inhibition of biofilm formation); type: cell-based, Acinetobacter baumannii; conditions: for killing of residential bacteria, co-culture (CLSM, in words): 10 μM; for Co-culture of bacteria with compound: Killing: Y / —
Description: (§3) Broad spectrum agents (effective against all three bacterial species) and single agent compounds identified as HTS hits were investigated with CLSM confirmation of inhibition of biofilm formation (culture of bacteria with compounds) or killing of bacteria residing within an established biofilm (compound addition after culturing biofilm). To evaluate inhibition of P. aeruginosa biofilms, bacteria were sub-cultured into 10% L-broth and grown at 37° C. until the OD600 reached 0.25. The bacteria were further diluted 1:100 into a modified 0.5×M63 minimum media (50 mM KH2PO4, 7.5 mM (NH4)2SO4, 9 μM FeSO4, 0.5% casamino acids, 0.2% glucose, and 1 mM MgSO4). A. baumannii biofilms were also grown in 10% L-broth until the OD600 reached 0.05 but diluted 1:10 into 5% L-broth media. S. epidermidis biofilm cultures were grown. Briefly, the bacteria were grown in TSB until the OD600 reached 0.75, and a 1:100 dilution of the bacteria was sub-cultured into phosphate buffered saline (PBS). All of the biofilm bacterial cultures were grown in 96-well plate chambers (MatTek Corp., Ashland, Mass.) in the presence of 10 μM of each compound or DMSO as a control and incubated for 18 hrs at 37° C. To investigate the ability of compounds to kill bacteria within pre-existing biofilms, biofilms were grown under the same conditions, but without test compound. These biofilms were washed once with PBS and incubated an additional 24 hr at 37° C. in PBS containing 300 μM of each compound. All biofilm cultures were then washed twice with 100 μL of PBS and stained using the LIVE/DEAD® BacLight™ Bacterial Viability Kit (Invitrogen). Finally, biofilm images were obtained using a Zeiss LSM510 META Confocal Microscope (Carl Zeiss, Inc., Germany). A 488 nm laser was used in conjunction with a Plan-Apochromat 100×/1.4 Oil DIC objective. Z-stacks were 8 bit and measured 127.3 μm×127.3 μm×16.0 μm in size. The filters used were 505-530 and 620-680 IR, as the excitation and emission wavelengths for red fluorescence are 490 nm and 635 nm, respectively, and 480 nm and 500 nm for green fluorescence. Three dimensional images were generated using the “Projection” ability on LSM Image Browser software (v.1.4.0.121) or Zeiss LSM image browser software version 3.5 (Carl Zeiss, Inc., Germany), and Live/Dead calculations were conducted based upon these images using MacBiophotonics ImageJ following the guidelines in the cell counting guide by C. Labno {Rasband, 1997-2011 #25; Labno, #2} at the University of Chicago Integrated Light Microscopy Core. The thickness of the biofilm was calculated using Comstat software. A hit was defined as a >50% dead to live ratio.
(§4) The CLSM experiment was performed in one or two or all bacteria used in this study depending on its activity. For the validation of HTS hits, 10 μM of compound was added to each bacterial suspension and the resulting biofilm stained with LIVE/DEAD® BacLight™ Bacterial Viability Kit. The images were analyzed to determine the live and dead ratios of biofilm bacteria, the thickness of biofilms, and structural attributes of biofilms.

P. aeruginosa biofilm [5] = test: as above; type: cell-based, Pseudomonas aeruginosa; conditions: for killing of residential bacteria, co-culture (CLSM, in words): 10 μM; for Co-culture of bacteria with compound: Killing: Y / —
Description: as §3, §4

S. epidermidis biofilm [6] = test: as above; type: cell-based, Staphylococcus epidermidis; conditions: for killing of residential bacteria, co-culture (CLSM, in words): 10 μM; for Co-culture of bacteria with compound: Killing: CLSM, 10 μM compound, 18 hrs, Y / —
Description: as §3, §4

[7] = tested on: P. aeruginosa established biofilm; test: CLSM, effect of compound on the pre-existing biofilm; type: cell-based, Pseudomonas aeruginosa; conditions: for Effect of compound on the pre-existing biofilm: Dispersion: ** = Bacterial morphology changed
Description: as §3, §4

| Compound | AC50 (P. aeruginosa) | AC50 (A. baumannii biofilm [1]) | AC50 (P. aeruginosa biofilm [2]) | AC50 (S. epidermidis biofilm [3]) | killing of residential bacteria, co-culture (CLSM, in words) (A. baumannii biofilm [4]) | Co-culture of bacteria with compound: Killing (A. baumannii biofilm [4]; CLSM, 10 μM compound, 18 hrs) | killing of residential bacteria, co-culture (CLSM, in words) (P. aeruginosa biofilm [5]) | Co-culture of bacteria with compound: Killing (P. aeruginosa biofilm [5]; CLSM, 10 μM compound, 18 hrs) | killing of residential bacteria, co-culture (CLSM, in words) (S. epidermidis biofilm [6]) | Co-culture of bacteria with compound: Killing (S. epidermidis biofilm [6]) | killing of established P. aeruginosa biofilm (CLSM, in words) ([7]; 300 μM, 24 hr) | Effect of compound on the pre-existing biofilm: Killing ([7]; CLSM, 300 μM compound, 24 hr, Y / —) | Effect of compound on the pre-existing biofilm: Dispersion ([7]; CLSM, 300 μM compound, 24 hr) | bacterial morphology in established P. aeruginosa biofilm (CLSM) [7] | HTS assay results: Total Bacteria growth (P. aeruginosa; Y / —) | HTS assay results: Live Bacteria (A. baumannii biofilm [1]; Y / —) | biofilm architecture / thickness of established P. aeruginosa biofilm (CLSM) ([7]; 300 μM) | Co-culture of bacteria with compound: Inhibit biofilm formation (A. baumannii biofilm [4]; CLSM, 10 μM compound, 18 hrs) | Co-culture of bacteria with compound: Inhibit biofilm formation (P. aeruginosa biofilm [5]; CLSM, 10 μM compound, 18 hrs) |
| --- | --- | --- | --- | --- | --- | --- | --- | --- | --- | --- | --- | --- | --- | --- | --- | --- | --- | --- | --- |
| Cn1sc(Cl)c(C#N)c1=O [Compound 3, 5-chloro-2-methyl-3-oxo-1,2-thiazole-4-carbonitrile] | 9.27 µM | 4.04 µM | 13.4 µM | 8.61 µM | killed residential bacteria | Y (A hit was defined as a >50% dead to live ratio) | killed residential bacteria | Y (A hit was defined as a >50% dead to live ratio) | killed residential bacteria | Y (A hit was defined as a >50% dead to live ratio) | demonstrated killing; also recorded: effective at killing | Y (A hit was defined as a >50% dead to live ratio) |  |  |  |  |  |  |  |
| NC(=S)N1CCN(c2cc3c(cc2F)c(=O)c(C(=O)O)cn3C2CC2)CC1 [Compound 7, 7-(4-carbamothioylpiperazin-1-yl)-1-cyclopropyl-6-fluoro-4-oxoquinoline-3-carboxylic acid] | 3 µM | 8.45 µM | 0.38 µM | 0.85 µM | killed residential bacteria | Y (A hit was defined as a >50% dead to live ratio) | killed residential bacteria | Y (A hit was defined as a >50% dead to live ratio) | killed residential bacteria | Y (A hit was defined as a >50% dead to live ratio) |  |  | caused dispersion and Y** | altered the morphology |  |  |  |  |  |
| O=C(O)c1cn(C2CC2)c2c(F)c(N3CC(O)C3)c(F)cc2c1=O [Compound 8, 1-cyclopropyl-6,8-difluoro-7-(3-hydroxyazetidin-1-yl)-4-oxoquinoline-3-carboxylic acid] | 44.4 µM | 2.33 µM | 57 µM | < 0.1 µM | killed residential bacteria | Y (A hit was defined as a >50% dead to live ratio) |  |  | killed residential bacteria | Y (A hit was defined as a >50% dead to live ratio) |  |  | caused dispersion and Y** | altered the morphology | —* (AC50 higher than 20 μM) | —* (AC50 higher than 20 μM) | thinner biofilm architecture |  |  |
| O=C(O)c1cn(C2CC2)c2c(F)c(-c3ccncc3)c(F)cc2c1=O [Compound 11, 7-(4-pyridyl)-1-cyclopropyl-6,8-difluoro-4-oxoquinoline-3-carboxylic acid] | 16 µM | 0.61 µM | 9.6 µM | < 0.1 µM |  |  |  |  | killed | Y (A hit was defined as a >50% dead to live ratio) |  |  | caused dispersion and Y** | altered the morphology |  |  | thinner biofilm architecture | inhibited biofilm formation | no effect |
